Laboratory results taken from patent US9789100B2, “Compounds as rearranged during transfection (RET) inhibitors” (GlaxoSmithKline Intellectual Property Development Limited, priority 2013, dated 2017).
Counter-ions that a name gives are not always drawn. Like-named read-outs stand apart in the source and are kept apart here.

Experiments:
TT cells = assay: RET kinase cell-based proliferation assay; set-up: species or system human; details: 192 h, read-out: RET IC50
Description: RET Kinase Cell-Based Proliferation Assay

[1] = target: Human RET kinase cytoplasmic domain (Homo sapiens (Human), UniProt P07949); assay: RET kinase enzymatic assay; format: biochemical; details: human RET kinase enzymatic assay (Table 2)
Description: RET Kinase Enzymatic Assay
GST-RET was purified using glutathione sepharose chromatography. The RET kinase enzymatic assay was performed in a total volume of 10 uL with increasing concentrations of RET kinase inhibitor as a singlet in a 384 well format as follows: RET inhibitor compound plates are prepared by adding 100 nL of RET inhibitor at different concentrations to a 384-well plate. 5 μL/well of a 2× enzyme mix (50 mM HEPES (4-(2-hydroxyethyl)-1-piperazineethanesulfonic acid); 1 mM CHAPS (3[(3-cholamidopropyl)dimethylammonio]-1-propanesulfonate); 0.1 mg/mL BSA (bovine serum albumin); 1 mM DTT (dithiothreitol); 0.2 nM RET kinase) was added to the 384-well plate and incubated for 30 minutes at 23° C.

[2] = target: constitutive RET kinase phosphorylation in TT cells (Homo sapiens (Human), UniProt P07949, C634W); assay: RET kinase cell-based mechanistic assay
Description: RET Kinase Cell-Based Mechanistic Assay
The potency of the compound of the invention was tested for its ability to inhibit constitutive RET kinase phosphorylation in cell-based assay. […] 1.0E5 TT cells/well were plated in a 96-well cell culture plate and allowed to adhere overnight. […] IC50s were fitted using GraphPad Prism to a sigmoidal dose response.

[3] = human RET kinase cell-based proliferation assay, TT cells, eight days (Table 4)

Chain of Human RET kinase cytoplasmic domain (P07949 658-1114): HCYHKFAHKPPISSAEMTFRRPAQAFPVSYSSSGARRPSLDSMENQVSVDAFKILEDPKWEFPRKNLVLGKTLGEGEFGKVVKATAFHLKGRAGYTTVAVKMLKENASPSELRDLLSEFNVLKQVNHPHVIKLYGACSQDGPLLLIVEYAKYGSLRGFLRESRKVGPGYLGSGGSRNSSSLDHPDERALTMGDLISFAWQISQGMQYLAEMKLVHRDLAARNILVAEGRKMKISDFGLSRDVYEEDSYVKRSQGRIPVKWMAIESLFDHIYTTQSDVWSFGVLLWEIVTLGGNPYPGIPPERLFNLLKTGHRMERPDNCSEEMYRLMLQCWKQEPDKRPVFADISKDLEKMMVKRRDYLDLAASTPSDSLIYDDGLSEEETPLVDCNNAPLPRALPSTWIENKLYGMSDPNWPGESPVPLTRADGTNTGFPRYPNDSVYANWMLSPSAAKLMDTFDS
Chain of constitutive RET kinase phosphorylation in TT cells (P07949 29-1114 C634W): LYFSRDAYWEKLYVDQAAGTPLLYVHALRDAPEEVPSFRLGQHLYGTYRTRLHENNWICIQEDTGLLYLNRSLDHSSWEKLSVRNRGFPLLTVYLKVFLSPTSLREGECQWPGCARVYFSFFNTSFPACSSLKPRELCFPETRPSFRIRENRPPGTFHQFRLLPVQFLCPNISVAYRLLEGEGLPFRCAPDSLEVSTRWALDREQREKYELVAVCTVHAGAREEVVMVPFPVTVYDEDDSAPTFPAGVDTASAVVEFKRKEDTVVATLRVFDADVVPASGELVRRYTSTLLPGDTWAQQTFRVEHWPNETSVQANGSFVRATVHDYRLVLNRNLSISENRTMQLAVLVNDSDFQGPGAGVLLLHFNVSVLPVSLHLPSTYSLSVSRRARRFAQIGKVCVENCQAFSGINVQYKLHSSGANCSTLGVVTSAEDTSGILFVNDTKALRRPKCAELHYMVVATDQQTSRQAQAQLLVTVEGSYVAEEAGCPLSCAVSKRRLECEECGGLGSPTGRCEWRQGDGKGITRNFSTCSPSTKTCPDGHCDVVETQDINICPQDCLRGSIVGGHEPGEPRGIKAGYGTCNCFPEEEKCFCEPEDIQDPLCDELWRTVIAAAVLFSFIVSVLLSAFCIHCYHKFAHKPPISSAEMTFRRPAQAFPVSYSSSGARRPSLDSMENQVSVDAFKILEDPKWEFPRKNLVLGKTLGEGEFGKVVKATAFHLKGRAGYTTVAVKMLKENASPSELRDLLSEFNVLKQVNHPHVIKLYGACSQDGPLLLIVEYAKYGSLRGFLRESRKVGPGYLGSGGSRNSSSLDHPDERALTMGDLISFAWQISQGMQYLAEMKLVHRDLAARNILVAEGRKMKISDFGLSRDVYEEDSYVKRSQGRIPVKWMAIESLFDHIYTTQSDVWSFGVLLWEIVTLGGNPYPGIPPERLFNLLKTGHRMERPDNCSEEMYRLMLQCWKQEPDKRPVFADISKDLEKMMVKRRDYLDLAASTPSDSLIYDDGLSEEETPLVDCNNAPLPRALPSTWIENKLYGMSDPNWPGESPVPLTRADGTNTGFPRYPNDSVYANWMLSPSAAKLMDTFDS

SMILES	IC50 (TT cells; Homo sapiens, TT)	IC50 [1]	IC50 [2]	IC50 (TT cells; [3])
CCOc1cc(-c2ccc(CC(=O)Nc3cc(C(C)(C)C(F)(F)F)nn3C)c(F)c2)c[nH]c1=O [Example 41, 2-(4-(5-ethoxy-6-oxo-1,6-dihydropyridin-3-yl)-2-fluorophenyl)-N-(1-methyl-3-(1,1,1-trifluoro-2-methylpropan-2-yl)-1H-pyrazol-5-yl)acetamide hydrochloride]	100 to 500 nM	< 100 nM	< 100 nM	–
CCOc1cc(-c2ccc(CC(=O)Nc3cc(C(C)(C)C(F)(F)F)n[nH]3)c(F)c2)c[nH]c1=O [Example 42, 2-(4-(5-ethoxy-6-oxo-1,6-dihydropyridin-3-yl)-2-fluorophenyl)-N-(3-(1,1,1-trifluoro-2-methylpropan-2-yl)-1H-pyrazol-5-yl)acetamide hydrochloride]	< 100 nM	< 100 nM	< 100 nM	–
CCOc1cc(-c2ccc(CC(=O)Nc3ccc(CC(F)(F)CO)c(C(F)(F)F)c3)c(F)c2)c[nH]c1=O [Example 43, N-(4-(2,2-difluoro-3-hydroxypropyl)-3-(trifluoromethyl)phenyl)-2-(4-(5-ethoxy-6-oxo-1,6-dihydropyridin-3-yl)-2-fluorophenyl)acetamide]	–	< 100 nM	< 100 nM	< 100 nM
CCOc1cc(-c2ccc(CC(=O)Nc3cc(-c4cnn(C)c4)cc(C(F)(F)F)c3)c(F)c2)c[nH]c1=O [Example 45, 2-(4-(5-ethoxy-6-oxo-1,6-dihydropyridin-3-yl)-2-fluorophenyl)-N-(3-(1-methyl-1H-pyrazol-4-yl)-5-(trifluoromethyl)phenyl)acetamide hydrochloride]	100 to 500 nM	< 100 nM	< 100 nM	–
CCOc1cc(-c2ccc(CC(=O)Nc3cc(OCCN(C)C)cc(C(F)(F)F)c3)c(F)c2)c[nH]c1=O [Example 46, N-(3-(2-(dimethylamino)ethoxy)-5-(trifluoromethyl)phenyl)-2-(4-(5-ethoxy-6-oxo-1,6-dihydropyridin-3-yl)-2-fluorophenyl)acetamide]	–	< 100 nM	< 100 nM	< 100 nM
